Measured values reported in BindingDB's records for doi:10.1021/acs.jmedchem.1c00818 (University of Picardy Jules Verne, 2021).

Assays:
[1] = Inhibition of full-length DC-SIGN (unknown origin) expressed in human monocyte derived dendritic cells assessed as inhibition of binding to recombinant HCMV gB using flow cytometry
[2] = Inhibition of DC-SIGN extracellular domain (unknown origin) binding to HIV gp120 by surface plasmon resonance analysis
[3] = Inhibition of DC-SIGN (unknown origin) expressed in human Jurkat cells assessed as inhibition of EBOV-pseudotyped virus infection measured after 48 hrs by luciferase assay

CC(C)(C)c1cc2c(OCCCn3cc(CN(O)C(=O)CCCCCn4cc(CO[C@H]5O[C@H](CO)[C@@H](O)[C@H](O)[C@@H]5O)nn4)nn3)c(c1)Cc1cc(C(C)(C)C)cc(c1OCCCn1cc(CN(O)C(=O)CCCCCn3cc(CO[C@H]4O[C@H](CO)[C@@H](O)[C@H](O)[C@@H]4O)nn3)nn1)Cc1cc(C(C)(C)C)cc(c1OCCCn1cc(CN(O)C(=O)CCCCCn3cc(CO[C@H]4O[C@H](CO)[C@@H](O)[C@H](O)[C@@H]4O)nn3)nn1)Cc1cc(C(C)(C)C)cc(c1OCCCn1cc(CN(O)C(=O)CCCCCn3cc(CO[C@H]4O[C@H](CO)[C@@H](O)[C@H](O)[C@@H]4O)nn3)nn1)C2
IC50 [1]: 0.156 µM | IC50 [2]: 37.5 µM | IC50 [3]: 0.634 µM

C[C@@H]1O[C@@H](OCc2cn(CCCCCC(=O)N(O)Cc3cn(CCCOc4c5cc(C(C)(C)C)cc4Cc4cc(C(C)(C)C)cc(c4OCCCn4cc(CN(O)C(=O)CCCCCn6cc(CO[C@@H]7O[C@@H](C)[C@@H](O)[C@@H](O)[C@@H]7O)nn6)nn4)Cc4cc(C(C)(C)C)cc(c4OCCCn4cc(CN(O)C(=O)CCCCCn6cc(CO[C@@H]7O[C@@H](C)[C@@H](O)[C@@H](O)[C@@H]7O)nn6)nn4)Cc4cc(C(C)(C)C)cc(c4OCCCn4cc(CN(O)C(=O)CCCCCn6cc(CO[C@@H]7O[C@@H](C)[C@@H](O)[C@@H](O)[C@@H]7O)nn6)nn4)C5)nn3)nn2)[C@@H](O)[C@H](O)[C@@H]1O
IC50 [1]: 0.188 µM | IC50 [2]: 26.8 µM | IC50 [3]: 0.289 µM

COC(=O)CNC(=O)CN(Cc1cn(CCCOc2c3cc(C(C)(C)C)cc2Cc2cc(C(C)(C)C)cc(c2OCCCn2cc(CN(CC(=O)NCC(=O)OC)C(=O)CCCCCn4cc(CO[C@@H]5O[C@@H](C)[C@@H](O)[C@@H](O)[C@@H]5O)nn4)nn2)Cc2cc(C(C)(C)C)cc(c2OCCCn2cc(CN(CC(=O)NCC(=O)OC)C(=O)CCCCCn4cc(CO[C@@H]5O[C@@H](C)[C@@H](O)[C@@H](O)[C@@H]5O)nn4)nn2)Cc2cc(C(C)(C)C)cc(c2OCCCn2cc(CN(CC(=O)NCC(=O)OC)C(=O)CCCCCn4cc(CO[C@@H]5O[C@@H](C)[C@@H](O)[C@@H](O)[C@@H]5O)nn4)nn2)C3)nn1)C(=O)CCCCCn1cc(CO[C@@H]2O[C@@H](C)[C@@H](O)[C@@H](O)[C@@H]2O)nn1
IC50 [1]: 0.777 µM | IC50 [2]: 26.5 µM | IC50 [3]: 0.218 µM

COC(=O)CNC(=O)CN(Cc1cn(CCCOc2c3cc(C(C)(C)C)cc2Sc2cc(C(C)(C)C)cc(c2OCCCn2cc(CN(CC(=O)NCC(=O)OC)C(=O)CCCCCn4cc(CO[C@H]5O[C@H](CO)[C@@H](O)[C@H](O)[C@@H]5O)nn4)nn2)Sc2cc(C(C)(C)C)cc(c2OCCCn2cc(CN(CC(=O)NCC(=O)OC)C(=O)CCCCCn4cc(CO[C@H]5O[C@H](CO)[C@@H](O)[C@H](O)[C@@H]5O)nn4)nn2)Sc2cc(C(C)(C)C)cc(c2OCCCn2cc(CN(CC(=O)NCC(=O)OC)C(=O)CCCCCn4cc(CO[C@H]5O[C@H](CO)[C@@H](O)[C@H](O)[C@@H]5O)nn4)nn2)S3)nn1)C(=O)CCCCCn1cc(CO[C@H]2O[C@H](CO)[C@@H](O)[C@H](O)[C@@H]2O)nn1
IC50 [2]: 14.6 µM

COC(=O)CNC(=O)CN(Cc1cn(CCCOc2c3cc(C(C)(C)C)cc2Cc2cc(C(C)(C)C)cc(c2OCCCn2cc(CN(CC(=O)NCC(=O)OC)C(=O)CCCCCn4cc(CO[C@H]5O[C@H](CO)[C@@H](O)[C@H](O)[C@@H]5O)nn4)nn2)Cc2cc(C(C)(C)C)cc(c2OCCCn2cc(CN(CC(=O)NCC(=O)OC)C(=O)CCCCCn4cc(CO[C@H]5O[C@H](CO)[C@@H](O)[C@H](O)[C@@H]5O)nn4)nn2)Cc2cc(C(C)(C)C)cc(c2OCCCn2cc(CN(CC(=O)NCC(=O)OC)C(=O)CCCCCn4cc(CO[C@H]5O[C@H](CO)[C@@H](O)[C@H](O)[C@@H]5O)nn4)nn2)C3)nn1)C(=O)CCCCCn1cc(CO[C@H]2O[C@H](CO)[C@@H](O)[C@H](O)[C@@H]2O)nn1
IC50 [2]: 45.3 µM

COC(=O)CNC(=O)CN(Cc1cn(CCCOc2c3cc(C(C)(C)C)cc2Sc2cc(C(C)(C)C)cc(c2OCCCn2cc(CN(CC(=O)NCC(=O)OC)C(=O)CCCCCn4cc(CO[C@@H]5O[C@@H](C)[C@@H](O)[C@@H](O)[C@@H]5O)nn4)nn2)Sc2cc(C(C)(C)C)cc(c2OCCCn2cc(CN(CC(=O)NCC(=O)OC)C(=O)CCCCCn4cc(CO[C@@H]5O[C@@H](C)[C@@H](O)[C@@H](O)[C@@H]5O)nn4)nn2)Sc2cc(C(C)(C)C)cc(c2OCCCn2cc(CN(CC(=O)NCC(=O)OC)C(=O)CCCCCn4cc(CO[C@@H]5O[C@@H](C)[C@@H](O)[C@@H](O)[C@@H]5O)nn4)nn2)S3)nn1)C(=O)CCCCCn1cc(CO[C@@H]2O[C@@H](C)[C@@H](O)[C@@H](O)[C@@H]2O)nn1
IC50 [1]: 1 µM | IC50 [2]: 17 µM | IC50 [3]: 0.602 µM

CO[C@H]1O[C@H](CO)[C@@H](O)[C@H](O)[C@@H]1O [methyl alpha-D-mannoside]
IC50 [3]: 1270 µM
